Laboratory results: US12678498B2, “FGFR/PD-1 combination therapy for the treatment of cancer” (ASTEX THERAPEUTICS LTD, priority 2015, dated 2026)

Columns and labels:
[1] = system: PBMCs from CMV-reactive donors stimulated with CMV antigen; test: Cytomegalovirus antigen assay (CMV), IFN-γ in supernatant by MSD; type: cell-based; settings: JNJ42756493 alone at 100, 1 or 0.01 nM; 6 days after treatment
Protocol: FIG. 5 illustrates the effect of JNJ42756493 on IFN-γ levels induced by anti-PD-1 antibodies in a Cytomegalovirus antigen assay (CMV) Assay. Peripheral blood mononuclear cells (PMBCs) were stimulated with CMV antigen and treated with anti-PD-1 antibodies (concentration left to right—30, 10, 3.33, 1.11, 0.37, 0.12 nM) as indicated. JNJ42756493 was added at 100, 1, or 0.01 nM alone (concentrations left to right), together with anti-PD-1 antibodies (100, 1, or 0.01 nM JNJ42756493 together with 30, 10, 3.33, 1.11, 0.37, or 0.12 nM of anti-PD-1 antibody), or in the presence of isotype control (IC). 6 days after treatment, IFN-γ levels in the supernatant were measured by MSD.
In the CMV assay, PBMCs from CMV-reactive donors were stimulated by the addition of CMV antigen. CMV-reactive T cells are active, expand and secrete pro-inflammatory cytokines such as IFN-γ. […] In contrast, JNJ42756493 alone had no impact on cytokine levels (FIG. 5, JNJ-493 alone).

[2] = system: peripheral blood mononuclear cells (PBMCs) from normal donors; test: Immune cell viability of PBMCs by CellTiter-Glo; type: cell-based; settings: increasing concentrations up to 1 μM, days 1, 2, 5 and 6
Protocol: To determine the effects of JNJ427564493 on immune cell viability in vitro, peripheral blood mononuclear cells (PBMCs) from normal donors were stimulated with anti-CD3 antibodies to activate T cells, in the presence of increasing concentrations of JNJ42756493. Unstimulated PBMCs were also included to determine if JNJ42756493 affected unactivated immune populations. Cell viability was assessed at four different time points, over 6 days.

## COc1cc(OC)cc(N(CCNC(C)C)c2ccc3ncc(-c4cnn(C)c4)nc3c2)c1 [JNJ42756493, N-(3,5-dimethoxyphenyl)-N′-(1-methylethyl)-N-[3-(1-methyl-1H-pyrazol-4-yl)quinoxalin-6-yl]ethane-1,2-diamine]
[1]
  cytokine (IFN-γ) levels: no impact
[2]; PBMCs stimulated with anti-CD3 antibodies
  cell viability (luminescence signal): remained constant
[2]; unstimulated PBMCs
  cell viability (luminescence signal): remained constant
